According to PubChem BioAssay (NCI):
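Briefly, cells in 96-well plates were exposed to five compound concentrations for 48 h, and endpoints were estimated by linear interpolation. TGI: total growth inhibition.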

Columns and labels:
Test in all cases: inhibition of tumour cell growth, NCI panel, 48 h
DMS 273 small cell lung = tested on: DMS 273 small cell lung
SF-539 CNS = tested on: SF-539 CNS
HOP-92 NSCLC = tested on: HOP-92 NSCLC
UO-31 renal = tested on: UO-31 renal
IGROV1 ovarian = tested on: IGROV1 ovarian
KM12 colon = tested on: KM12 colon
NCI-H23 lung = tested on: NCI-H23 lung
SK-MEL-28 melanoma = tested on: SK-MEL-28 melanoma
UACC-62 melanoma = tested on: UACC-62 melanoma
HCC-2998 colon = tested on: HCC-2998 colon
HCT-15 colon = tested on: HCT-15 colon
CCRF-CEM leukemia = tested on: CCRF-CEM leukemia
NCI-H460 lung = tested on: NCI-H460 lung
OVCAR-3 ovarian = tested on: OVCAR-3 ovarian
SW-620 colon = tested on: SW-620 colon
UACC-257 melanoma = tested on: UACC-257 melanoma
KM20L2 colon = tested on: KM20L2 colon
COLO 205 colon = tested on: COLO 205 colon
OVCAR-5 ovarian = tested on: OVCAR-5 ovarian
SNB-78 CNS = tested on: SNB-78 CNS
LOX IMVI melanoma = tested on: LOX IMVI melanoma
SR leukemia = tested on: SR leukemia
EKVX NSCLC = tested on: EKVX NSCLC
SK-MEL-5 melanoma = tested on: SK-MEL-5 melanoma
M14 melanoma = tested on: M14 melanoma
SN12C renal = tested on: SN12C renal
RXF 393 renal = tested on: RXF 393 renal
SNB-75 CNS = tested on: SNB-75 CNS
MOLT-4 leukemia = tested on: MOLT-4 leukemia
HL-60(TB) leukemia = tested on: HL-60(TB) leukemia
HT29 colon = tested on: HT29 colon
TK-10 renal = tested on: TK-10 renal
ACHN renal = tested on: ACHN renal
SNB-19 CNS = tested on: SNB-19 CNS
SK-MEL-2 melanoma = tested on: SK-MEL-2 melanoma
M19-MEL melanoma = tested on: M19-MEL melanoma
SF-268 CNS = tested on: SF-268 CNS
U251 CNS = tested on: U251 CNS
LXFL 529 NSCLC = tested on: LXFL 529 NSCLC
HOP-62 NSCLC = tested on: HOP-62 NSCLC
A549 NSCLC = tested on: A549 NSCLC
HCT-116 colon = tested on: HCT-116 colon
RPMI-8226 leukemia = tested on: RPMI-8226 leukemia
OVCAR-4 ovarian = tested on: OVCAR-4 ovarian
OVCAR-8 ovarian = tested on: OVCAR-8 ovarian
K-562 leukemia = tested on: K-562 leukemia
HOP-18 NSCLC = tested on: HOP-18 NSCLC

CCNc1nnc(-c2nsc3ccccc23)s1
TGI (DMS 273 small cell lung): > 100 µM | TGI (SF-539 CNS): > 100 µM | TGI (HOP-92 NSCLC): > 100 µM | TGI (UO-31 renal): > 100 µM | TGI (IGROV1 ovarian): > 100 µM | TGI (KM12 colon): > 100 µM | TGI (NCI-H23 lung): > 100 µM | TGI (SK-MEL-28 melanoma): > 100 µM | TGI (UACC-62 melanoma): > 100 µM | TGI (HCC-2998 colon): > 100 µM | TGI (HCT-15 colon): > 100 µM | TGI (CCRF-CEM leukemia): > 100 µM | TGI (NCI-H460 lung): 88.6 µM | TGI (OVCAR-3 ovarian): 57.6 µM | TGI (SW-620 colon): > 100 µM | TGI (UACC-257 melanoma): > 100 µM | TGI (KM20L2 colon): > 100 µM | TGI (COLO 205 colon): > 100 µM | TGI (OVCAR-5 ovarian): > 100 µM | TGI (SNB-78 CNS): > 100 µM | TGI (LOX IMVI melanoma): > 100 µM | TGI (SR leukemia): > 100 µM | TGI (EKVX NSCLC): > 100 µM | TGI (SK-MEL-5 melanoma): > 100 µM | TGI (M14 melanoma): > 100 µM | TGI (SN12C renal): > 100 µM | TGI (RXF 393 renal): > 100 µM | TGI (SNB-75 CNS): 36.1 µM | TGI (MOLT-4 leukemia): > 100 µM | TGI (HL-60(TB) leukemia): > 100 µM | TGI (HT29 colon): 93.3 µM | TGI (TK-10 renal): > 100 µM | TGI (ACHN renal): > 100 µM | TGI (SNB-19 CNS): 45.6 µM | TGI (SK-MEL-2 melanoma): > 100 µM | TGI (M19-MEL melanoma): > 100 µM | TGI (SF-268 CNS): 80.9 µM | TGI (U251 CNS): > 100 µM | TGI (LXFL 529 NSCLC): > 100 µM | TGI (HOP-62 NSCLC): > 100 µM | TGI (A549 NSCLC): > 100 µM | TGI (HCT-116 colon): 75.2 µM | TGI (RPMI-8226 leukemia): > 100 µM | TGI (OVCAR-4 ovarian): > 100 µM | TGI (OVCAR-8 ovarian): > 100 µM | TGI (K-562 leukemia): > 100 µM | TGI (HOP-18 NSCLC): 91.6 µM
